Measurements: ChEMBL document CHEMBL1765060, “Synthesis, characterization, and biological evaluation of novel diclofenac prodrugs” (J Med Chem, 2011)

Experiments:
[1] = Metabolic stability in rat liver microsomes assessed as compound remaining after 60 mins by HPLC analysis; assay type: ADME, Microsome; details: read-out: Stability
Rattus norvegicus [2] = assay: Gastrointestinal toxicity in Wistar rat assessed as ulcer index at 50 mg/kg, po; assay type: organism-based; design: dose 50 mg/kg, route oral; details: in vivo
[3] = Metabolic stability in rat plasma assessed as compound remaining after 120 mins by HPLC analysis; assay type: ADME, cell-free; details: read-out: Stability
Rattus norvegicus [4] = assay: Antiinflammatory activity in Wistar rat assessed as inhibition of carrageenan-induced paw edema at 50 mg/kg, po administered 1 hr before carrageenan challenge measured after 180 mins; assay type: functional; design: scale not given: the % may be the effect or the level left
Rattus norvegicus [5] = assay: Gastrointestinal toxicity in Wistar rat assessed as ulcer area of <1 mm diameter at 50 mg/kg, po; assay type: organism-based; design: dose 50 mg/kg, route oral; details: in vivo
Rattus norvegicus [6] = assay: Gastrointestinal toxicity in Wistar rat assessed as ulcer area of 1-3 mm diameter at 50 mg/kg, po; assay type: organism-based; design: dose 50 mg/kg, route oral; details: in vivo
Rattus norvegicus [7] = assay: Gastrointestinal toxicity in Wistar rat assessed as ulcer area of >3 mm diameter at 50 mg/kg, po; assay type: organism-based; design: dose 50 mg/kg, route oral; details: in vivo
[8] = Metabolic stability in rat plasma assessed as compound remaining after 60 mins by HPLC analysis; assay type: ADME, cell-free; details: read-out: Stability
[9] = Metabolic stability in rat liver microsomes assessed as compound remaining after 30 mins by HPLC analysis; assay type: ADME, Microsome; details: read-out: Stability
[10] = buffer, pH 3
[11] = buffer, pH 9
[12] = buffer, pH 7.4
Rattus norvegicus [13] = assay: Antiinflammatory activity in Wistar rat assessed as inhibition of carrageenan-induced paw edema at 100 mg/kg, po administered 1 hr before carrageenan challenge measured after 180 mins; assay type: functional; design: scale not given: the % may be the effect or the level left
[14] = Aqueous solubility of the compound in acetate buffer at pH 5.5 by HPLC analysis
[15] = buffer, pH 1
Rattus norvegicus [16] = assay: Gastrointestinal toxicity in Wistar rat assessed as ulcer index at 100 mg/kg, po; assay type: organism-based; design: dose 100 mg/kg, route oral; details: in vivo
physchem [17] = details: octanol/0.2 M phosphate buffer, pH 7.4
Rattus norvegicus [18] = assay: Gastrointestinal toxicity in Wistar rat assessed as ulcer area of >3 mm diameter at 100 mg/kg, po; assay type: organism-based; design: dose 100 mg/kg, route oral; details: in vivo
Rattus norvegicus [19] = assay: Gastrointestinal toxicity in Wistar rat assessed as ulcer area of <1 mm diameter at 100 mg/kg, po; assay type: organism-based; design: dose 100 mg/kg, route oral; details: in vivo
Rattus norvegicus [20] = assay: Gastrointestinal toxicity in Wistar rat assessed as ulcer area of 1-3 mm diameter at 100 mg/kg, po; assay type: organism-based; design: dose 100 mg/kg, route oral; details: in vivo
physchem [21] = details: octanol/0.1 M citric acid buffer, pH 3

| Structure (SMILES) | remaining at 1 h [1] | remaining at 2 h [3] | remaining at 1 h [8] | remaining at 0.5 h [9] | solubility [10] | solubility [11] | solubility [12] | Activity (Rattus norvegicus [13]) | solubility [14] | solubility [15] | UI (Rattus norvegicus [16]) | logD (physchem [17]) | Activity (Rattus norvegicus [19]) | logD (physchem [21]) | also measured |
| --- | --- | --- | --- | --- | --- | --- | --- | --- | --- | --- | --- | --- | --- | --- | --- |
| O=C([O-])Cc1ccccc1Nc1c(Cl)cccc1Cl.[Na+] [DICLOFENAC SODIUM] | 88.8% | 69.4% | 86.2% | 84.4% |  |  |  |  |  |  |  |  |  |  | UI (Rattus norvegicus [2]): 63; Activity (Rattus norvegicus [4]): 49.17%; Activity (Rattus norvegicus [5]): 80%; Activity (Rattus norvegicus [6]): 14%; Activity (Rattus norvegicus [7]): 6% |
| CC(C)OC(=O)OCOC(=O)Cc1ccccc1Nc1c(Cl)cccc1Cl | 1.2% | 0% | 0% | 2.2% | BLD | BLD | BLD | 40.88% | BLD | BLD | 40 | 2.46 | 91.4% | 3.9 | Activity (Rattus norvegicus [18]): 5.71%; Activity (Rattus norvegicus [20]): 2.86% |
| CC(=O)OCCOC(=O)Cc1ccccc1Nc1c(Cl)cccc1Cl | 0% | 0% | 0% | 0% | BLD | BLD | BLD | 47.51% | BLD | BLD | 8 | 4.57 | 100% | 4.33 |  |
| CC(C)(C)C(=O)OCOC(=O)Cc1ccccc1Nc1c(Cl)cccc1Cl | 0% | 0% | 0% | 2.5% | BLD | BLD | BLD | 56.33% | BLD | BLD | 6 | 3.72 | 100% | 4.08 |  |
